These results are taken from US8618289B2 (Ambit Biosciences Corporation, priority 2008, dated 2013).

The test system of test [1] is tumor growth or metastases. The conditions noted are these: preclinical studies; Sharma et al.; cited from earlier work.
Test [2] concerns the target RAF kinases (Homo sapiens, UniProt P04049). The conditions noted are these: read-out: RAF1 Kd; RAF1.
Test [3] has as its target RAF kinases (Homo sapiens, UniProt P15056). The conditions noted are these: read-out: BRAF WT Kd; BRAF WT.
The test system of test [4] is 290 distinct kinases tested excluding mutant variants (321 in the larger panel). The conditions noted are these: no asterisk: panel of 290 distinct kinases.
Protocol: Competition binding assays used herein were developed, validated and performed as described in Fabian et al., Nature Biotechnology 2005, 23, 329-336. […] The liganded beads were blocked with excess biotin and washed with blocking buffer (SeaBlock (Pierce), 1% BSA, 0.05% Tween 20, 1 mM DTT) to remove unbound ligand and to reduce non-specific binding. […] Test compounds were prepared as 100× stocks in DMSO and rapidly diluted into the aqueous environment. DMSO was added to control assays lacking a test compound. Primary screen interactions were performed in polypropylene 384-well plates in a final volume of 34 μt, while Kd determinations were performed in polystyrene 96-well plates in a final volume of 135 pt. […] The kinase concentration in the eluates was measured by quantitative PCR. Each kinase was tested individually against each compound. Kds were determined using eleven serial threefold dilutions. A selectivity score, which is a quantitative measure of selectivity of a compound against a panel of enzymes, may be calculated for a compound by dividing the number of enzymes for which a compound meets a set criteria, (for example, a binding constant of 100 nM or less), by the total number of enzymes tested. […] (Note, for those compounds tested in a larger kinase panel, as indicated by an asterisk (*) next to the S35 score, the divisor is 321 (i.e. the larger panel contains 321 distinct kinases, excluding mutant variants.)).
The subject of test [5] is MEK1 phosphorylation in the A375 human melanoma cell line. In words: cells. The conditions noted are these: A-375, read-out: pMEK IC50.
Test [6] deals with RAF kinases (Homo sapiens, UniProt P15056, V600E). Put plainly: biochemical.
The subject of the next test is Erk1/2. The note with it: carrageenan-induced pleurisy rat model; Sawatzky et al.; cited from earlier work.

RAF kinases (Homo sapiens, UniProt P15056, V600E), sequence (P15056 whole entry V600E): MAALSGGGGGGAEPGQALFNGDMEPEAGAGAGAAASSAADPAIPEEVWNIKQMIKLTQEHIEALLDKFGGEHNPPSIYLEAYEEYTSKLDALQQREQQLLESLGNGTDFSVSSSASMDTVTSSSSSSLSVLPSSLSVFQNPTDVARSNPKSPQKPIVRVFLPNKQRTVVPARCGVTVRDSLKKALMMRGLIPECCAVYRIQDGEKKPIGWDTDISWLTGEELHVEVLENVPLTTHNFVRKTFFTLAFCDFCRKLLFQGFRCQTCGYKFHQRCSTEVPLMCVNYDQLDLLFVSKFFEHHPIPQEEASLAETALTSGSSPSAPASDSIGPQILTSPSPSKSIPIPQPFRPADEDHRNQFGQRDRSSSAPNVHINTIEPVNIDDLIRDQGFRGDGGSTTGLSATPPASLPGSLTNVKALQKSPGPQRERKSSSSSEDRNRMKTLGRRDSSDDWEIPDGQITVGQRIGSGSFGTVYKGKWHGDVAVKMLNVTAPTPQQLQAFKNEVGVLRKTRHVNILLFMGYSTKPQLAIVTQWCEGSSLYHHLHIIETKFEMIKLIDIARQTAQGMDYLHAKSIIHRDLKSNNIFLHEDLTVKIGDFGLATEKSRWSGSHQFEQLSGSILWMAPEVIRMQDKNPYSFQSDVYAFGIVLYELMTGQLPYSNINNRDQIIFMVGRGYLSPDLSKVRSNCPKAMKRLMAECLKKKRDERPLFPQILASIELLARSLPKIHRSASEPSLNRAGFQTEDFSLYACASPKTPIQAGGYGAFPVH
RAF kinases (Homo sapiens, UniProt P15056), sequence (P15056 whole entry): as the sequence (P15056 whole entry V600E) above, with E600V counted along it
RAF kinases (Homo sapiens, UniProt P04049), sequence (P04049 whole entry): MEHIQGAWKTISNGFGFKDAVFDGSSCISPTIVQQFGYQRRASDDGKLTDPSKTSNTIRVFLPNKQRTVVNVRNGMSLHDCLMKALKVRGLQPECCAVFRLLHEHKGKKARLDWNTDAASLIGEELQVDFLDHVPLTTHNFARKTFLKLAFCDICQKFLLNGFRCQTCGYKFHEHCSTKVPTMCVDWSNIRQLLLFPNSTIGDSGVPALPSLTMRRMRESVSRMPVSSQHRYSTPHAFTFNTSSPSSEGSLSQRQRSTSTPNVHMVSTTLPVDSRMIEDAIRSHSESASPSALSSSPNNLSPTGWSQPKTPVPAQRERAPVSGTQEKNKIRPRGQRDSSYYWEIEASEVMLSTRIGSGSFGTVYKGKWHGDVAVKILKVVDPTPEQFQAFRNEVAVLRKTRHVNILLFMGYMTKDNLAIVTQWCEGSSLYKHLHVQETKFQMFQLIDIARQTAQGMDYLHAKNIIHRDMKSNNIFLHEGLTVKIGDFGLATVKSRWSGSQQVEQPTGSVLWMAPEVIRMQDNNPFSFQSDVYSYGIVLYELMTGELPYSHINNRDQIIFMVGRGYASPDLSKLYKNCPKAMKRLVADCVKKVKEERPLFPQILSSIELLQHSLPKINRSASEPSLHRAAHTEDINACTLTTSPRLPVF

For the compound `CNC(=O)c1cc(Oc2ccc(NC(=O)Nc3ccc(Cl)c(C(F)(F)F)c3)cc2)ccn1` [Sorafenib], the “tumor growth or metastases in animals” value in test [1] is listed as “decrease in tumor growth or metastases”.

Usually Kd stands for a measure of binding affinity in units of concentration. As a reminder, the IC50 is the concentration at which inhibition is half-maximal. Turning to `COc1cc2ncnc(Oc3cccc(NC(=O)Nc4cc(C(C)(C)C)nn4-c4ccccc4C)c3)c2cc1OC` [Ex 342, 1-(3-tert-butyl-1-o-tolyl-1H-pyrazol-5-yl)-3-(3-(6,7-dimethoxyquinazolin-4-yloxy)phenyl)urea], the figures for the Kd at RAF kinases [2], on RAF kinases [3] and on RAF kinases [6] were > 1000 nM, > 1000 nM and 250 to 500 nM, respectively. Besides, in test [4], the S35 entry was “D (D > 0.40)”. Further, the IC50 in test [5] is < 250 nM.

In the case of `COc1cc2ncnc(Sc3cccc(NC(=O)Nc4cc(C(C)(C)C)nn4-c4ccccc4Cl)c3)c2cc1OC` [Ex 341, 1-(3-tert-butyl-1-(2-chlorophenyl)-1H-pyrazol-5-yl)-3-(3-(6,7-dimethoxyquinazolin-4-ylthio)phenyl)urea], the Kd on RAF kinases [2] is > 1000 nM; at RAF kinases [3], > 1000 nM; at RAF kinases [6] it was 250 to 500 nM. Also, the S35 result in test [4] is “C (0.20 < C ≦ 0.40)”. The IC50 in test [5] was < 250 nM.

As to `COc1cc2ncnc(Oc3cccc(NC(=O)Nc4cc(C(C)(C)C)nn4-c4ccccc4Cl)c3)c2cc1OC` [Ex 340, 1-(3-tert-butyl-1-(2-chlorophenyl)-1H-pyrazol-5-yl)-3-(3-(6,7-dimethoxyquinazolin-4-yloxy)phenyl)urea], the Kd on RAF kinases [2] was > 1000 nM; on RAF kinases [3] it was > 1000 nM; on RAF kinases [6], 250 to 500 nM. The S35 entry in test [4] was “D (D > 0.40)”. In test [5], the IC50 was < 250 nM.

Regarding `COc1cc2ncnc(Sc3cccc(NC(=O)Nc4cc(C(C)(C)C)nn4-c4ccccc4C)c3)c2cc1OC` [Ex 343, 1-(3-tert-butyl-1-o-tolyl-1H-pyrazol-5-yl)-3-(3-(6,7-dimethoxyquinazolin-4-ylthio)phenyl)urea], the values for the Kd at RAF kinases [2], at RAF kinases [3] and at RAF kinases [6] were > 1000 nM, > 1000 nM and 250 to 500 nM, respectively. For the same compound, in test [4], the S35 result is listed as “C (0.20 < C ≦ 0.40)”. Further, the IC50 in test [5] is < 250 nM.

Regarding `COc1cc2ncnc(Oc3cccc(NC(=O)Nc4cc(C(C)(C)C)nn4-c4ccccn4)c3)c2cc1OC` [Ex 344, 1-(3-tert-Butyl-1-(pyridin-2-yl)-1H-pyrazol-5-yl)-3-(3-(6,7-dimethoxyquinazolin-4-yloxy)phenyl)urea], the Kd was > 1000 nM at RAF kinases [2], > 1000 nM at RAF kinases [3] and 500 to 1000 nM at RAF kinases [6]. Moreover, in test [4], the S35 entry was “C (0.20 < C ≦ 0.40)”. In test [5], the IC50 fell in the range of 500 to 1000 nM.

As to `COc1cc2ncnc(Sc3cccc(NC(=O)Nc4cc(C(C)(C)C(F)(F)F)nn4-c4ccccc4)c3)c2cc1OC` [Ex 307, 1-(3-(6,7-dimethoxyquinazolin-4-ylthio)phenyl)-3-(1-phenyl-3-(1,1,1-trifluoro-2-methylpropan-2-yl)-1H-pyrazol-5-yl)urea], the values for the Kd at RAF kinases [2], on RAF kinases [3] and on RAF kinases [6] were > 1000 nM, > 1000 nM and 250 to 500 nM, respectively. Also, the S35 entry in test [4] is listed as “D (D > 0.40)”. Besides, the IC50 in test [5] was < 250 nM.

For `COc1cccc(-c2cc(=O)c3ccccc3o2)c1N` [PD98059], the “eosinophilic proinflammatory cytokine release” value with Erk1/2 is reported as “inhibits eosinophilic proinflammatory cytokine release”.
